{"source": "patent US10160759B2", "about": "“Hydroxyethyl sulfonate of cyclin-dependent protein kinase inhibitor, crystalline form thereof and preparation method therefor” (Jiangsu Hengrui Medicine Co., Ltd., priority 2015, dated 2018)", "origin": "cited, not measured here", "conditions": "patients, clinical trial NCT00721409", "data": [{"smiles": "N#Cc1ccc(C(c2ccc(C#N)cc2)n2cncn2)cc1", "note": "[letrozole]", "values": [{"measurement": "progression-free survival (PFS)", "result": 7.5, "unit": "months"}]}]}
